Results on 21 compounds are retold here after patent EP1366764A1, “Method of screening for calcium receptor-active molecules” (The Brigham & Women's Hospital, Inc., priority 1993, dated 1994).

Where two headings read alike, the source gives them in different places.

A short description of series [1]: Hypocalcemic activity in vivo (serum or whole blood ionized Ca2+, PTH) in rats.
Text: Male Sprague-Dawley rates (200 g) were maintained on a low calcium diet for one week prior to receiving test substance or vehicle as control.
Rats (male, Sprague-Dawley, 250-300 g) were fed standard rat chow and fasted overnight prior to the experiment.
The nature of series [2]: Serum ionized Ca2+ in the 5/6 nephrectomized rat (model of secondary hyperparathyroidism). The series is classed as in vivo, rats. The note with it: 10 mg/kg i.p. The text has this:
An accepted and widely used animal model of secondary hyperparathyroidism arising from chronic renal failure is the 5/6 nephrectomized rat. Animals receiving such surgery become initially hypocalcemic and, to maintain serum Ca^2+ levels, there is a compensatory hyperplasia of the parathyroid glands and elevated levels of circulating PTH. Male Sprague-Dawley rats (250 g) received a 5/6 nephrectomy and were allowed to recover for 2 weeks. At this time they were normocalcemic (due to elevated levels of serum PTH).

Series [3] is described as follows: Serum ionized Ca2+ in parathyroidectomized rats. The series is classed as in vivo. The text has this: To determine the primary target tissue upon which NPS 467 acts to cause a hypocalcemic response, the para thyroid glands in rats were surgically removed.
The subject of series [4] is rat osteoclasts. Kind of series: Measurement of [Ca2+]i in single rat osteoclasts (indo-1). It counts as cell-based. The note with it: for EC50: Osteoclast.
Series [5] in a line: Net positive charge of the molecule. The series is classed as physicochemical.
The subject of series [6] is rMTC 6-23 cells. Kind of series: Measurement of cytosolic Ca2+ in C-cells (fura-2). The note with it: for EC50: read-out: EC50 (C-CELL). It counts as cell-based, rat.
The subject of series [7] is human parathyroid cells. Kind of series: Measurement of [Ca2+]i (fura-2) in human parathyroid cells. It counts as cell-based.
Experimental: Human parathyroid glands, obtained from patients undergoing surgical removal of parathyroid tissue for primary or uremic hyperparathyroidism (HPT), were treated similarly to bovine tissue. Glands were trimmed of excess fat and connective tissue and then minced with a fine scissors into approximate cubes of 2-3 mm. Dissociated parathyroid cells were prepared by collagenase digestion. Dissociated cells were then purified by centrifugation in Percoll buffer. The resultant parathyroid cell preparation was essentially devoid of red blood cells, adipocytes, and capillary tissue as assessed by phase contrast microscopy and Sudan black B staining. Dissociated and purified parathyroid cells were present as small clusters containing 5 to 20 cells.
The cells were then pelleted, resuspended in the same buffer lacking the ester, and incubated a further 15 min at 37°C. The cells were subsequently washed twice with PCB containing 0.5 mM CaCl2 and 0.5% BSA and maintained at room temperature (about 20°C). […] The concentration of cells in the cuvette used for fluorescence recording was 1-2 x 10^6/ml.
The fluorescence of indicator-loaded cells was measured at 37°C in a spectrofluorimeter (Biomedical Instrumentation Group, University of Pennsylvania, Philadelphia, PA) equipped with a thermostated cuvette holder-and magnetic stirrer using excitation and emission wavelengths of 340 and 510 nm, respectively. […]
The target in series [8] is T1, Ca^2+ receptor (Homo sapiens, UniProt P41180).
T1 construct: Oocytes were injected with poly(A)^+-enriched mRNA from human parathyroid tissue; expressed in transfected cells; host or cells: Xenopus laevis oocytes injected with poly(A)+ mRNA from human hyperplastic parathyroid glands (secondary HPT)
T1 sequence (P41180 20-1078): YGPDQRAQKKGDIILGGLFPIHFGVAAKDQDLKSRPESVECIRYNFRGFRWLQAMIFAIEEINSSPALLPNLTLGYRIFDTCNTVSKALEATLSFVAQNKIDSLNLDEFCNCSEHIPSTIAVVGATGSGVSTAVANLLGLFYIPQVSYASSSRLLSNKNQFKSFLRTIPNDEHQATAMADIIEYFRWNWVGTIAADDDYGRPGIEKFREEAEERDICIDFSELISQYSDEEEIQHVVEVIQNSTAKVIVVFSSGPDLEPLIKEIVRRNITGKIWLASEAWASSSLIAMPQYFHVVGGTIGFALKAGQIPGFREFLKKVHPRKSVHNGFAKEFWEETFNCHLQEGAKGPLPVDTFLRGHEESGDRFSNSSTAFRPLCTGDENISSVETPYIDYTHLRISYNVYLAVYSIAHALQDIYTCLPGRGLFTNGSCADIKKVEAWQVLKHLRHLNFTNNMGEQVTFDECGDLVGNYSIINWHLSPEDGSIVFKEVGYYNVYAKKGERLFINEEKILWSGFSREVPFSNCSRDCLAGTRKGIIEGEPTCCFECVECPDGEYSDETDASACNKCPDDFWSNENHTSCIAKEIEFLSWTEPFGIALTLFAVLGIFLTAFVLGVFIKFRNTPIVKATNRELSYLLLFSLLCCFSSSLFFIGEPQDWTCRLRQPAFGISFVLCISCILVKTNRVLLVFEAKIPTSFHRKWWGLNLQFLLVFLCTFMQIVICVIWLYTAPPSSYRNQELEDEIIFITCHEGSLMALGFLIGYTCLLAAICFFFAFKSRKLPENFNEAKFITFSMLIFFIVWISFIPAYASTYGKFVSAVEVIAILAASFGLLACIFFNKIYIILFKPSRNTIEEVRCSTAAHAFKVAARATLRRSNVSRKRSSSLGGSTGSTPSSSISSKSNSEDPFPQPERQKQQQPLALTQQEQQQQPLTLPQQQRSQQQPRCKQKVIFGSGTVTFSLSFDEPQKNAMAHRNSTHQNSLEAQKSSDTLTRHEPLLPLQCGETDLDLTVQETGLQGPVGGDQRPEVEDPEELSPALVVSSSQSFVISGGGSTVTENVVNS
Kind of series: Cl- current in Xenopus oocytes injected with human parathyroid cell mRNA. The series is classed as cell-based. The note with it: oocytes injected with mRNA from human parathyroid cells.

The mark [9] stands for this setting: rat osteoclasts, indo-1, "inactive" = no increase in cytosolic Ca2+ at 1 mM or 1-5 mM (footnote).
Where [10] appears, read: rMTC 6-23 cells, fura-2, "inactive" = no increase in cytosolic Ca2+ at 1 mM or 1-5 mM (footnote).

For `COc1cccc(C(C)NCCCc2ccccc2)c1` (racemic) [NPS 467], in series [1] (25 mg/kg (Fig. 40)), the “return of hypocalcemic effect toward control” value is “returned toward control levels after 24 hours” and the “time of maximal hypocalcemic effect” value was “maximal within three hours”. In addition, the “serum albumin or phosphate levels” value in series [1] (any of the doses examined) was “no change”. In addition, in series [1] (doses effective in lowering blood Ca2+, preliminary studies), the “circulating levels of PTH” value is on record as “dose-dependent reduction”. The “serum or whole blood Ca^2+” value in series [1] (i.p., low calcium diet, three hours after administration) was “dose-dependent reduction”.

Take `COc1cccc([C@@H](C)NCCCc2ccccc2)c1` (single isomer, unassigned) [NPS R-467]: the “time to fall in serum ionized Ca^2+” value in series [2] is ≤ 2 h. Also, the “serum ionized Ca^2+ levels, % of controls” value in series [2] (5/6 nephrectomized rats, 2 weeks after surgery) is on record as 83 % of controls. Further, the “decrease in serum ionized Ca^2+ from the control level” value in series [1] (10 mg/kg i.p., single dose, rats on normal calcium-replete diet, at maximum) is recorded as 22%. For the same compound, in series [1] (10 mg/kg i.p., normal diet), the “time serum ionized Ca^2+ remained depressed” value was “up to 6 hours” and the “time to maximal fall in serum ionized Ca^2+” value was ≤ 1 h. For the same compound, the “potency in lowering serum Ca^2+ in vivo, R- versus S-isomer” value in series [1] (each compound at 5 mg/kg body weight) was “more potent than the S-isomer”. Besides, in series [1] (single oral dose in corn oil by gavage, three hours, fasted rats), the “serum levels of ionized Ca^2+ after oral dosing” value is reported as “dose-dependent reduction”. For the same compound, the “change in serum ionized Ca^2+ levels” value in series [3] (10 mg/kg i.p., single dose, over 6 hours) is “did not cause any change”. Further, the EC50 in series [4] (setting [9]) is > 100 µM.

Take `NCCCCCCCCCCCCN` [1,12-diaminododecane (DADD), 1,12-diaminododecane]: the “Net (+) Charge” value in series [5] (at physiological pH (pH 7.3)) is recorded as “+2”.

Consider `NC(=O)C[C@H](NC(=O)Cc1c[nH]c2cccc(O)c12)C(=O)NCCCCCNCCCNCCCNC(=O)[C@@H](N)CCCN=C(N)N` [Argiotoxin-659], for which the “Net (+) Charge” value in series [5] (at physiological pH (pH 7.3)) is “+4”.

As for `NCCCNCCCCNCCCNCCCN(O)CCCNC(=O)Cc1c[nH]c2cccc(O)c12` [NPS 015], in series [6] (setting [10]), the “EC50 (C-CELL)” value is “inactive”. Also, in series [6] (read-out: IC50 for block of extracellular Ca^2+-induced increases in [Ca^2+]i, rMTC cells, block of the L-type voltage-sensitive Ca2+ channel), the IC50 came to 3 µM.

As to `NCCCNCCCCNCCCNCCCN(O)CCCNC(=O)Cc1c[nH]c2ccccc12` [NPS 017], the “EC50 (OSTEOCLAST)” value in series [4] (setting [9]) is “inactive”.

For the compound `NCCCNCCCCNCCCNCCCNCCCNC(=O)Cc1c[nH]c2ccccc12` [NPS 019], the EC50 in series [6] (setting [10]) is 5 µM.

As to `NCCCN(CCCN)CCCN(CCCN)CCCCN(CCCN)CCCN(CCCN)CCCN` [NPS 381, N^1,N^1,N^5,N^10,N^14,N^14-hexakis-(3-aminopropyl) spermine], the “Net (+) Charge” value in series [5] (at physiological pH (pH 7.3)) is “+10”.

Take `NCCCN1CCCN(CCCN)CCN(CCCN)CCCN(CCCN)CC1` [NPS 383]: the “Net (+) Charge” value in series [5] (at physiological pH (pH 7.3)) was “+8”.

Consider `COc1cccc([C@@H](C)NCCCc2ccccc2Cl)c1` [NPS R-568], for which the EC50 in series [7] (read-out: EC50 for the mobilization of intracellular Ca^2+ / increase in [Ca^2+]i, human parathyroid cells (adenoma)) is 3 µM; in series [6] (Rattus norvegicus, rMTC 6-23 cells, fura-2, "inactive" = no increase in cytosolic Ca2+ at 1 mM or 1-5 mM (footnote)), > 300 µM; in series [4] (setting [9]), 200 µM. The ED50 in series [1] (Rattus norvegicus, read-out: ED50 for decrease in the levels of serum Ca^2+, oral administration to rats) is 7 mg/kg. In addition, the “hypocalcemic response in parathyroidectomized rats” value in series [3] (oral administration) is reported as “fails to elicit a hypocalcemic response”.

With `NCCNCCNCCNCCN` [Tetraethylenepentamine (TEPA), Tetraethylenepentamine], in series [5] (at physiological pH (pH 7.3)), the “Net (+) Charge” value is “+5”.

Take `NCCNCCNCCN` [Triethylenetramine (TETA), triethylenetetramine]: in series [5] (at physiological pH (pH 7.3)), the “Net (+) Charge” value was “+4”.

Regarding `NC[C@H]1O[C@H](O[C@H]2[C@H](O)[C@@H](O[C@H]3O[C@H](CO)[C@@H](O)[C@H](N)[C@H]3O)[C@H](N)C[C@@H]2N)[C@H](N)[C@@H](O)[C@@H]1O` [bekanamycin], the “Net (+) Charge” value in series [5] (at physiological pH (pH 7.3)) is “+5”.

`C1CNCCNCCNCCNCCNCCN1` [hexacyclen, 1,4,7,10,13,16-hexaaza-cyclooctadecane]: in series [5] (at physiological pH (pH 7.3)), the “Net (+) Charge” value is on record as “+6”. Also, in series [8], the “concentration causing the mobilization of intracellular Ca^2+ in oocytes” value came to 135 µM.

For `CCC[C@@H]1C[C@@H](C(=O)N[C@@H]([C@H]2O[C@H](SC)[C@H](O)[C@@H](O)[C@H]2O)[C@@H](C)O)N(C)C1` [lincomycin], the “Net (+) Charge” value in series [5] (at physiological pH (pH 7.3)) is “+1”.

Take `NCCCCNCCCN` [spermidine]: the “Net (+) Charge” value in series [5] (at physiological pH (pH 7.3)) is recorded as “+3”. For the same compound, in series [4] (1 mM), the “increase in [Ca^2+]i, % of that evoked by a maximal concentration of extracellular Ca^2+” value is reported as “about 10%”.

Turning to `NCCCNCCCCNCCCN` [spermine], the “increase in [Ca^2+]i” value in series [7] (300 µM) is “only a small increase in [Ca^2+]i”. For the same compound, in series [6] (spermine 10 mM, neomycin B 5 mM), the “effect on basal [Ca^2+]i” value is on record as “without effect”. Besides, in series [4] (neomycin 10 mM (25 mM extracellular Ca2+), spermine 20 mM, verapamil 100 µM), the “effect on the response to subsequent extracellular Ca^2+” value is “did depress the response to extracellular Ca^2+”. Further, in series [4] (neomycin 10 mM, spermine 10 or 20 mM), the “increases in [Ca^2+]i in rat osteoclasts” value was “Neither neomycin (10 mM) nor spermine (10 or 20 mM) caused increases”. The “increase in [Ca^2+]i in osteoclasts” value in series [4] (neomycin B 1 mM, spermine 1 or 5 mM) is “failed to evoke any increase in [Ca^2+]i”.

`[H]/N=C(/N)N[C@H]1[C@H](O)[C@@H](O)[C@H](O[C@@H]2O[C@@H](C)[C@](O)(C=O)[C@H]2O[C@@H]2O[C@@H](CO)[C@H](O)[C@@H](O)[C@@H]2NC)[C@@H](N/C(N)=N\[H])[C@@H]1O` [streptomycin]: in series [5] (at physiological pH (pH 7.3)), the “Net (+) Charge” value is listed as “+3”.

For the compound `COc1ccc(CCN(C)CCCC(C#N)(c2ccc(OC)c(OC)c2)C(C)C)cc1OC` (stereo not drawn) [verapamil], in series [4] (100 µM), the “increase in [Ca^2+]i” value was “caused no detectable increase in [Ca^2+]i”.

With “N^1,N^1,N^5,N^14,N^14-tetrakis-(3-aminopropyl)spermine [NPS 382]”, in series [5] (pH 7.3), the “Net (+) Charge” value was “+8”. The “concentration causing the mobilization of intracellular Ca^2+ in oocytes” value in series [8] turned out to be 5000 µM.

gentamicin: the “Net (+) Charge” value in series [5] (at physiological pH (pH 7.3)) is reported as “+5”.

A word on the IC50: it is the midpoint of a concentration-inhibition curve. The ED50 is the dose that gives a 50% effect, or the effect in half of the subjects.
